Active and inactive are the calls of the source. No cut-off for these calls is given here.
What was measured:
[1] = molecular target: T1, 5-hydroxytryptamine receptor 6 (Homo sapiens, UniProt P50406); experiment: Displacement of [3H]-LSD from human 5-HT6R expressed in human HEK293 cells incubated for 1 hr by radioligand binding assay; format: cell-based
[2] = molecular target: T2, 5-hydroxytryptamine receptor 1A (Homo sapiens, UniProt P08908); experiment: Displacement of [3H]-8-OH-DPAT from human 5-HT1A expressed in human HEK293 cells assessed as inhibitory constant incubated for 1 hr by radioligand binding assay; format: cell-based
T2 sequence (P08908 whole entry): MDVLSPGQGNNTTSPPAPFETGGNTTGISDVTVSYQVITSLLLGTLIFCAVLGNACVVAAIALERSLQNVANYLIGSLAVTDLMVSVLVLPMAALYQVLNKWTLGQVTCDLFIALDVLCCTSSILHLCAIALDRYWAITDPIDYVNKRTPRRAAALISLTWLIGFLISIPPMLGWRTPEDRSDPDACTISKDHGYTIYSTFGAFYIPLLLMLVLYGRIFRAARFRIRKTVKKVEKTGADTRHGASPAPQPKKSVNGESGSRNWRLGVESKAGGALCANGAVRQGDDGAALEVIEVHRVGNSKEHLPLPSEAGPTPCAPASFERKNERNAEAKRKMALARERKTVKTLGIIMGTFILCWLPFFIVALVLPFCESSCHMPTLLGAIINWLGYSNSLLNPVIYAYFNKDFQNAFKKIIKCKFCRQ

[3] = molecular target: 5-hydroxytryptamine receptor 7 (Homo sapiens, UniProt P34969); experiment: Displacement of [3H]-5-CT from human 5-HT7R expressed in human HEK293 cells assessed as inhibitory constant incubated for 1 hr by radioligand binding assay; format: cell-based
D(2) dopamine receptor = D(2) dopamine receptor (Homo sapiens, UniProt P14416); experiment: Displacement of [3H]-raclopride from human D2L receptor expressed in human HEK293 cells incubated for 1 hr by radioligand binding assay; format: cell-based
[4] = molecular target: 5-hydroxytryptamine receptor 2A (Homo sapiens, UniProt P28223); experiment: Displacement of [3H]-Ketanserin from human 5-HT2A expressed in CHO-K1 cells incubated for […] by radioligand binding assay; format: cell-based
Rattus norvegicus [5] = experiment: Antidepressant activity in Wistar rat assessed as reduction in immobility at 0.1 to 1 mg/kg, ip measured after 60 mins by forced swim test; format: functional, organism-based
[6] = Mutagenicity in Salmonella typhimurium TA100 assessed as fold increase over MCB at 1 uM preincubated for 90 mins and measured after 72 hrs by Ames test; format: toxicity; conditions: salmonella enterica subsp. enterica serovar typhimurium
[7] = molecular target: T1, 5-hydroxytryptamine receptor 6; experiment: Antagonist activity at recombinant human 5HT6 receptor expressed in CHOK1 cells co-expressing Galpha16/aequorin assessed as reduction in serotonin-induced calcium mobilization flux preincubated for 30 mins followed by serotonin addition in presence of coelenterazine h by luminescence assay; format: functional, cell-based
[8] = Selectivity ratio of CC50 for cytotoxicity against human SH-SY5Y cells to ratio of Ki for human 5-HT6R expressed in human HEK293 cells
[9] = Mutagenicity in Salmonella typhimurium TA100 assessed as increase in revertant colonies at 10 uM preincubated for 90 mins and measured after 72 hrs by Ames test; format: toxicity; conditions: salmonella enterica subsp. enterica serovar typhimurium
[10] = molecular target: T1, 5-hydroxytryptamine receptor 6; experiment: Agonist activity at recombinant human 5HT6 receptor expressed in CHOK1 cells co-expressing Galpha16/aequorin assessed as increase in calcium mobilization and measured for 60 secs in presence of coelenterazine by luminescence assay relative to control; format: functional, cell-based
SH-SY5Y = experiment: Cytotoxicity against human SH-SY5Y cells assessed as decrease in cell viability at 100 uM incubated for 72 hrs by MTS assay; format: cell-based
[11] = Mutagenicity in Salmonella typhimurium TA100 assessed as fold increase over MCB at 10 uM preincubated for 90 mins and measured after 72 hrs by Ames test; format: toxicity; conditions: salmonella enterica subsp. enterica serovar typhimurium
[12] = Ratio of test compound CC50 to doxorubicin CC50 for cytotoxicity against human SH-SY5Y cells incubated for 72 hrs by MTS assay; format: cell-based
[13] = Mutagenicity in Salmonella typhimurium TA100 assessed as increase in revertant colonies at 1 uM preincubated for 90 mins and measured after 72 hrs by Ames test; format: toxicity; conditions: salmonella enterica subsp. enterica serovar typhimurium
Rattus norvegicus [14] = experiment: Antidepressant activity in Wistar rat assessed as reduction in immobility at 0.3 to 3 mg/kg, ip measured after 60 mins by forced swim test; format: functional; set-up: scale not given: the % may be the effect or the level left
Rattus norvegicus [15] = experiment: Antidepressant activity in Wistar rat assessed as ambulation-Y movement moved at 0.3 mg/kg, ip pretreated for 60 mins and measured for 5 mins by open field test (reference value: 187 +/- 15); format: functional
Rattus norvegicus [16] = experiment: Antidepressant activity in Wistar rat assessed as reduction in immobility at 0.1 mg/kg, ip measured after 60 mins by forced swim test; format: functional, organism-based
Rattus norvegicus [17] = experiment: Antidepressant activity in Wistar rat assessed as ambulation-X movement moved at 0.3 mg/kg, ip pretreated for 60 mins and measured for 5 mins by open field test (reference value: 190 +/- 12); format: functional
Rattus norvegicus [18] = experiment: Antidepressant activity in Wistar rat assessed as rear movement moved at 0.3 mg/kg, ip pretreated for 60 mins and measured for 5 mins by open field test (reference value: 57 +/- 6); format: functional
Rattus norvegicus [19] = experiment: Antidepressant-like activity in Wistar rat assessed as total distance moved at 0.3 mg/kg, ip pretreated for 60 mins and measured for 5 mins by open field test (reference value: 2165 +/- 119 cm); format: functional
Rattus norvegicus [20] = experiment: Antidepressant activity in Wistar rat assessed as reduction in immobility at 10 mg/kg, ip measured after 30 mins by forced swim test; format: functional, organism-based
Rattus norvegicus [21] = experiment: Antidepressant activity in Wistar rat assessed as ambulation-X movement moved at 1 mg/kg, ip pretreated for 60 mins and measured for 5 mins by open field test (reference value: 213 +/- 13); format: functional
Rattus norvegicus [22] = experiment: Antidepressant activity in Wistar rat assessed as ambulation-Y movement moved at 1 mg/kg, ip pretreated for 60 mins and measured for 5 mins by open field test (reference value: 187 +/- 14); format: functional
Rattus norvegicus [23] = experiment: Antidepressant activity in Wistar rat assessed as total distance moved at 1 mg/kg, ip pretreated for 60 mins and measured for 5 mins by open field test (reference value: 929 +/- 36 cm); format: functional
Rattus norvegicus [24] = experiment: Antidepressant activity in Wistar rat assessed as reduction in immobility at 1 mg/kg, ip measured after 60 mins by forced swim test; format: functional; set-up: scale not given: the % may be the effect or the level left
Rattus norvegicus [25] = experiment: Antidepressant activity in Wistar rat assessed as rear movement moved at 1 mg/kg, ip pretreated for 60 mins and measured for 5 mins by open field test (reference value: 68 +/- 7); format: functional

Sequence of 5-hydroxytryptamine receptor 7 (P34969 whole entry): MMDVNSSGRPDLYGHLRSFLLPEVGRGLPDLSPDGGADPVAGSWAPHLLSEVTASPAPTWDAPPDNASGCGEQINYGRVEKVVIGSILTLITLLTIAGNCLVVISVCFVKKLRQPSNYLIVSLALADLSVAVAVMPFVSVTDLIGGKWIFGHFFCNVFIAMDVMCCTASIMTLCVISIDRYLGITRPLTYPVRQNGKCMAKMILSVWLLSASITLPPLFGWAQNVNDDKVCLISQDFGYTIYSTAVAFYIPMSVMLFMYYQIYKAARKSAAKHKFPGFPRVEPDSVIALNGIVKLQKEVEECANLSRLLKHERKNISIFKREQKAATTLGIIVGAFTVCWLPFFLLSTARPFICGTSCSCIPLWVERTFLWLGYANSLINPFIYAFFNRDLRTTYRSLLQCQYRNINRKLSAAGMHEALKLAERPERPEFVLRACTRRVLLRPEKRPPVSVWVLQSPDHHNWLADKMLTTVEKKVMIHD
Sequence of D(2) dopamine receptor (P14416 whole entry): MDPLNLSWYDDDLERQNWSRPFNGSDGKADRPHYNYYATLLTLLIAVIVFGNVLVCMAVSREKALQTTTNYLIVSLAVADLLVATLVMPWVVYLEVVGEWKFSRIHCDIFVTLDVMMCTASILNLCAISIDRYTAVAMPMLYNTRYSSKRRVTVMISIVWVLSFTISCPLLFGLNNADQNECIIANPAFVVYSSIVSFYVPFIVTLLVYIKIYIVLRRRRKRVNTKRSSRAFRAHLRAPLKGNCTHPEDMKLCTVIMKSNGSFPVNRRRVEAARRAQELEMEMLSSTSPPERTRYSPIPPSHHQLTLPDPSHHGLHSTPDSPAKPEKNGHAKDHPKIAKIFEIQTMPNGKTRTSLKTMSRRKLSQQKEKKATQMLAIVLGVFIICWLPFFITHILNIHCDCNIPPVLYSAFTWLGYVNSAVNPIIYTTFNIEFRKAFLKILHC
T1 sequence (P50406 whole entry): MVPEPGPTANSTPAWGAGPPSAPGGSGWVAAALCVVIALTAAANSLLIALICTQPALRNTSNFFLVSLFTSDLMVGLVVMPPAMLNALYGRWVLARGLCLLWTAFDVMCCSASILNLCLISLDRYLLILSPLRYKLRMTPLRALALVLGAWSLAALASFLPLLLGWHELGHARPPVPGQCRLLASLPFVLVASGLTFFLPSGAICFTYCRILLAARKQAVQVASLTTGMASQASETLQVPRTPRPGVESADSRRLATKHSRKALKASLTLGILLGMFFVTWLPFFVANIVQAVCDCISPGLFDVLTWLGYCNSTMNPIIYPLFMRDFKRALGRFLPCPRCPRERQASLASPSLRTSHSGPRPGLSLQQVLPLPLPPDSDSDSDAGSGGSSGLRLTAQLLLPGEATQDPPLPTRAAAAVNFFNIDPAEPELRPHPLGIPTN
Sequence of 5-hydroxytryptamine receptor 2A (P28223 whole entry): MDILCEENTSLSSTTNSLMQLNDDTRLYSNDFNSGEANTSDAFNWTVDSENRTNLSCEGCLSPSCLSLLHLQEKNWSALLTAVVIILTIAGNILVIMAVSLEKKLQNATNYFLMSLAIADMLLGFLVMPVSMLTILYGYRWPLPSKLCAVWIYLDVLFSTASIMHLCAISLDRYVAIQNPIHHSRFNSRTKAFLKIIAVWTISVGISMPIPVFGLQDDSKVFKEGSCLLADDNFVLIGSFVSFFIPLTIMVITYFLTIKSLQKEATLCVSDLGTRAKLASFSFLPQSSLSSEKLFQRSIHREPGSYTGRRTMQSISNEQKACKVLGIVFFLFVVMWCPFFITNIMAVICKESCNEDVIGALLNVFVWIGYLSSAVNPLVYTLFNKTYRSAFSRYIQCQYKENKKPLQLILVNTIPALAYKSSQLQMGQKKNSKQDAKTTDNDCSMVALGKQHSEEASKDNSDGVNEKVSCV

Cc1cc(Cl)ccc1OCc1nc(N)nc(N2CCN(C)CC2)n1
Ki [1]: 0.911 µM | Ki [2]: 7.69 µM | Ki [3]: 15.2 µM | Ki (D(2) dopamine receptor): 4.37 µM

CN1CCN(c2nc(N)nc(COc3ccccc3Cl)n2)CC1
Ki [1]: 0.129 µM | Ki [2]: 5.47 µM | Ki [3]: 9.25 µM | Ki (D(2) dopamine receptor): 2.36 µM

CN1CCN(c2nc(N)nc(CSc3ccccc3Cl)n2)CC1
Ki [1]: 0.126 µM | Ki [2]: 1.68 µM | Ki [3]: 0.614 µM | Ki (D(2) dopamine receptor): 0.329 µM

CN1CCN(c2nc(N)nc(CSc3ccccc3)n2)CC1
Ki [1]: 0.026 µM | Ki [4]: 0.197 µM | Ki [2]: 4.39 µM | Ki [3]: 2.87 µM | Ki (D(2) dopamine receptor): 0.734 µM

Cc1cc(OCc2nc(N)nc(N3CCN(C)CC3)n2)ccc1Cl
Ki [1]: 0.355 µM | Ki [4]: 0.197 µM | Ki [2]: 3.58 µM | Ki [3]: 5.84 µM | Ki (D(2) dopamine receptor): 1.22 µM

CC(Oc1cccc(Cl)c1)c1nc(N)nc(N2CCN(C)CC2)n1 (stereo not drawn)
Ki [1]: 0.118 µM | Ki [4]: 0.59 µM | Ki [2]: 3.44 µM | Ki [3]: 8.36 µM | Ki (D(2) dopamine receptor): 0.566 µM

CC(Sc1ccccc1Cl)c1nc(N)nc(N2CCN(C)CC2)n1 (stereo not drawn)
Ki [1]: 0.019 µM | Ki [4]: 0.407 µM | Activity (Rattus norvegicus [5]): inactive | fold change (FC) [6]: 0.94 | Kb [7]: 0.0029 µM | Ki [2]: 3.38 µM | Ki [3]: 4.57 µM | Ki (D(2) dopamine receptor): 0.52 µM | Selectivity ratio [8]: >4000 | Activity [9]: 8.33 | Emax [10]: 1% | Activity (SH-SY5Y): Toxic | fold change (FC) [11]: 0.76 | selectivity ratio at 72 h [12]: 100 | Activity [13]: 10.33

Cc1ccccc1OCc1nc(N)nc(N2CCN(C)CC2)n1
Ki [1]: 0.087 µM | Ki [4]: 17.2 µM | Ki [2]: 14.2 µM | Ki [3]: 0.514 µM | Ki (D(2) dopamine receptor): 4.25 µM

Cc1ccc(C(C)C)c(OCc2nc(N)nc(N3CCN(C)CC3)n2)c1
Ki [1]: 0.011 µM | fold change (FC) [6]: 0.55 | Activity (Rattus norvegicus [14]): 20% | Activity (Rattus norvegicus [15]): 290 | Kb [7]: 0.0046 µM | Selectivity ratio [8]: >4000 | Activity [9]: 4 | Activity (Rattus norvegicus [16]): inactive | Emax [10]: 1% | Activity (SH-SY5Y): Toxic | Activity (Rattus norvegicus [17]): 307 | Activity (Rattus norvegicus [18]): 56 | Activity (Rattus norvegicus [19]): 2833 cm | fold change (FC) [11]: 0.47 | selectivity ratio at 72 h [12]: 100 | Activity [13]: 4.67

COc1ccc(S(=O)(=O)Nc2cc(Cl)cc(Cl)c2OC)cc1N1CCNCC1
Activity (Rattus norvegicus [20]): Active

CN1CCN2c3ccccc3Cc3ccccc3C2C1 (stereo not drawn)
Emax [10]: 1%

CN1CCN(c2nc(N)nc(C[Se]c3ccccc3)n2)CC1
Ki (D(2) dopamine receptor): 0.506 µM

CC([Se]c1ccccc1)c1nc(N)nc(N2CCN(C)CC2)n1 (stereo not drawn)
Ki (D(2) dopamine receptor): 0.656 µM

CN1CCN(c2nc(N)nc(CS(=O)(=O)c3ccccc3Cl)n2)CC1
Ki [1]: 3.57 µM | Ki [4]: 11.6 µM | Ki [2]: > 1000 µM | Ki [3]: 98.4 µM | Ki (D(2) dopamine receptor): 50.1 µM

CN1CCN(c2nc(N)nc(COc3ccccc3)n2)CC1
Ki [4]: 2.63 µM | Ki [2]: 8.73 µM | Ki [3]: 9.53 µM | Ki (D(2) dopamine receptor): 1.35 µM

Cc1cccc(OCc2nc(N)nc(N3CCN(C)CC3)n2)c1
Ki [1]: 0.207 µM | Ki [4]: 2.27 µM | Ki [2]: 15.1 µM | Ki [3]: 10.7 µM | Ki (D(2) dopamine receptor): 0.74 µM

O=S(=O)(c1ccccc1)c1cnc2c(N3CCNCC3)cccc2c1
Emax [10]: 2%

CN1CCN(c2nc(N)nc(COc3ccc(Cl)cc3Cl)n2)CC1
Ki [1]: 0.128 µM | Ki [2]: 1.61 µM | Ki [3]: 3.8 µM | Ki (D(2) dopamine receptor): 1.23 µM

CC(Oc1ccccc1Cl)c1nc(N)nc(N2CCN(C)CC2)n1 (stereo not drawn)
Activity (Rattus norvegicus [21]): 269 | Ki [1]: 0.023 µM | Ki [4]: 1.83 µM | fold change (FC) [6]: 0.73 | Activity (Rattus norvegicus [22]): 227 | Kb [7]: 0.003 µM | Ki [2]: 4.54 µM | Ki [3]: 38.7 µM | Activity (Rattus norvegicus [23]): 1005 cm | Ki (D(2) dopamine receptor): 1 µM | Activity (Rattus norvegicus [24]): 22% | Selectivity ratio [8]: >4000 | Activity [9]: 11 | Emax [10]: 1% | Activity (SH-SY5Y): Toxic | Activity (Rattus norvegicus [25]): 46 | fold change (FC) [11]: 1 | selectivity ratio at 72 h [12]: 100 | Activity [13]: 8

CN1CCN(c2nc(N)nc(COc3cccc(Cl)c3)n2)CC1
Ki [1]: 0.148 µM | Ki [2]: 7.5 µM | Ki [3]: 5.82 µM | Ki (D(2) dopamine receptor): 0.674 µM

Cc1ccc(OCc2nc(N)nc(N3CCN(C)CC3)n2)cc1
Ki [1]: 0.235 µM | Ki [2]: 28.5 µM | Ki [3]: 16.1 µM | Ki (D(2) dopamine receptor): 2.92 µM
